Source: PubChem BioAssay AID1963834 (Molecular Pharmacology Branch, DTP, NCI, 2024)
Where “and” joins values, the source holds several entries; their conditions need not be identical. Equal values may be shown once.

Test system: 873145-292-R-J1-PDC complex spheroid viability
Test: Anticancer human tumor 873145-292-R-J1-PDC patient-derived renal clear cell carcinoma cell line growth inhibition [POLQ]
Settings: for viability, T/C: stronger effect = lower value
Protocol: Multicellular complex tumor spheroid response to Polymerase (POL) inhibitors (novobiocin, ART-558, RP6685) in combination with a variety of drugs and investigational agents in selected tumor cell lines
The POL inhibitors (novobiocin, ART-558, and RP6685) were evaluated both individually and in combination with standard of care and investigational anticancer small molecules within a complex spheroid model of solid tumors. . Complex spheroids include a stromal component modeled by human endothelial cells (HUVEC) and fibroblasts modeled by human mesenchymal stem cells (MSCs). The concentration ranges selected for each drug and investigational agent were based upon clinically achievable concentrations if the clinical Cmax of the agent was known.
Compounds. The drugs and investigational agents: novobiocin (NSC847541), ART-558 (NSC835418), RP-6685 (NSC848927), peposertib (NSC802822), ceralasertib (NSC780249), elimusertib (NSC800525), camonsertib (NSC841442), AZD-1390 (NSC803789), olaparib (NSC753686), talazoparib (NSC767125), rucaparib (NSC756644), sotorasib (NSC818433), MRTX-1133 (NSC836407), SN-38 (NSC673596), topotecan (NSC609699), epotoside (NSC141540), doxorubicin (NSC123127), gemcitabine (NSC613327), 5-fluorouracil (NSC19893), paclitaxel (NSC125973), vemurafenib (NSC761431), MSA-2 (NSC828583), SN-011 (NSC837082), adavosertib (NSC754352), prexasertib (NSC758257), carboplatin (NSC241240) and oxaliplatin (NSC266046), were obtained from the National Cancer Institute (NCI) Developmental Therapeutics Program Chemical Repository (21). The FDA-approved anticancer drug set is available from the Developmental Therapeutics Program at https://dtp.cancer.gov/organization/dscb/obtaining/. […] The stock solutions were prepared in dimethyl sulfoxide (DMSO, Sigma-Aldrich, St. Louis, MO, cat. D2650), except for the platinum compounds which were prepared in saline (Quality Biological, Gaithersburg, MD, cat. 114-055-101), at 800-fold the tested concentration and stored at -70 degrees C prior to their use. All drugs and investigational agents were tested over a range starting from a high concentration at or near the clinical Cmax and decreasing in half-log increments. If the clinical Cmax for an agent had not been determined, the highest concentration tested was 10 microM, except for SN-38, which was tested at a high concentration of 1 microM.
Cell Culture. All cells were maintained in an incubator at 37 degrees C and 5% CO2 with 95% humidity. The PDC lines were cultured according to standard operating procedures established by the NCI PDMR (https://pdmr.cancer.gov). Table 3 of the manuscript, lists the cell lines along with the number of the three cell types plated to form the mct-spheroids and media for tumor cell growth. After thawing, all PDC lines, except 997537-175-T-J1-PDC and 415267-285-R-J2-PDC, were cultured in Matrigel-coated flasks prepared with a working solution of 1X Ham's F-12 nutrient mix, without supplementation (Thermo Fisher Scientific, cat. 11765054), 100 U/mL penicillin-streptomycin (Thermo Fisher Scientific, cat. 15140122), and 2.5% Matrigel (Corning Inc., Corning, NY, cat. 354248) for the first three passages. The two PDC lines 997537-175-T-J1-PDC and 415267-285-R-J2-PDC were cultured on uncoated flasks. The 857933-349-R-J2-PDC line was cultured in 6C/Colon 1B media containing advanced DMEM/F-12 (Thermo Fisher Scientific, cat. 12634028), 10 mM HEPES (Thermo Fisher Scientific, cat. 15630080), 1X GlutaMAX supplement (Thermo Fisher Scientific, cat. 35050061), 0.1 mg/mL primocin (InvivoGen, San Diego, CA, cat. ant-pm-2), 10% defined fetal bovine serum, heat inactivated (HyClone Laboratories Inc., Logan, UT, cat. SH30070.03HI), 50% L-WRN conditioned media (ATCC, cat. CRL-3276), 1.25 mM N-Acetyl-L-cysteine (Sigma-Aldrich, cat. A9165), 10 mM nicotinamide (Sigma-Aldrich, cat. N0636), 1X B-27 supplement (Thermo Fisher Scientific, cat. 17504044), 1X N-2 supplement (Thermo Fisher Scientific, cat. […]
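Further: spheroids exposed to compounds for 7 days before viability readout.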
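Wherever viability, T/C is given: luminescence signal used as surrogate for viable cell content; 100% = DMSO vehicle control viability.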

`COc1cc(C2c3cc4c(cc3C(OC3OC5COC(C)OC5C(O)C3O)C3COC(=O)C23)OCO4)cc(OC)c1O` (configuration not stated) was tested, and the viability, T/C (compound 0.0316 µM) was 95.1% and 110% and 113%, the viability, T/C (compound 0.1 µM) was 94.9% and 101% and 95.3% and the viability, T/C (compound 0.316 µM) was 98.2% and 106% and 94.5%. The viability, T/C (compound 1 µM) was 95.1% and 95.9% and 102%, the viability, T/C (compound 3.16 µM) was 67% and 80.8% and 85.2% and the viability, T/C (compound 10 µM) was 56.9% and 68.2% and 66%. The IC50 (curve of compound) was greater than 10 µM.

For `Nc1ccn(C2OC(CO)C(O)C2(F)F)c(=O)n1` (configuration not stated), the viability, T/C (compound 0.0316 µM) was 64.3% and 74.6% and 56.8%, the viability, T/C (compound 0.1 µM) was 55.4% and 57.4% and 46.8% and the viability, T/C (compound 0.316 µM) was 50.4% and 59.5% and 57.8%. For the same compound, the viability, T/C (compound 1 µM) was 58.3% and 53% and 55.6%, the viability, T/C (compound 3.16 µM) was 55.6% and 60% and 51.4% and the viability, T/C (compound 10 µM) was 49.7% and 56.7% and 41.6%. The IC50 (curve of compound) was > 10 µM and 1.86 µM.

With `CCc1cc2c(N3CCc4c(cc(Cn5ccnc5)cc4-c4cn(C)nc4C(F)(F)F)C3=O)cc(C)nc2c(OC)n1` the viability, T/C (compound 0.0316 µM) was 95.3% and 101% and 104%, the viability, T/C (compound 0.1 µM) was 96.6% and 94.7% and 102% and the viability, T/C (compound 0.316 µM) was 88.5% and 93.9% and 90.2%. For the same compound, the viability, T/C (compound 1 µM) was 94.2% and 85.1% and 80.9%, the viability, T/C (compound 3.16 µM) was 85.1% and 79.1% and 86.5% and the viability, T/C (compound 10 µM) was 80.2% and 85.1% and 81%. It also gave an IC50 (curve of compound) greater than 10 µM.

With `CC1COCCN1c1cc(-c2ccnn2C)c2ccnc(-c3ccn[nH]3)c2n1` (configuration not stated) the viability, T/C (compound 0.0316 µM) was 88.9% and 83.1% and 97%, the viability, T/C (compound 0.1 µM) was 77.3% and 74.3% and 90% and the viability, T/C (compound 0.316 µM) was 67.5% and 67.3% and 68.5%. For the same compound, the viability, T/C (compound 1 µM) was 51.8% and 50.8% and 56.1%, the viability, T/C (compound 3.16 µM) was 40% and 41.9% and 52.3% and the viability, T/C (compound 10 µM) was 39.3% and 41.4% and 57.8%. For the same compound, the IC50 (curve of compound) was 1.21 µM and 1.2 µM and > 10 µM.

Compound `COc1cc2cc(C(=O)CCC(=O)O)sc2cc1OC` + Nc1ccc(C#CCN(C(=O)Cc2ncc(C(F)(F)F)cc2C(F)(F)F)c2ccc(F)cc2)nn1 has an IC50 (curve of first compound, second compound 0.0316 µM) greater than 10 µM, an IC50 (curve of first compound, second compound 0.1 µM) greater than 10 µM and an IC50 (curve of first compound, second compound 0.316 µM) greater than 10 µM. It also gave an IC50 (curve of first compound, second compound 1 µM) greater than 10 µM, an IC50 (curve of first compound, second compound 3.16 µM) greater than 10 µM and an IC50 (curve of first compound, second compound 10 µM) greater than 10 µM. It also gave a viability, T/C (second compound 0.0316 µM, first compound 0.0316 µM) of 94.6%, a viability, T/C (second compound 0.0316 µM, first compound 0.1 µM) of 116% and a viability, T/C (second compound 0.0316 µM, first compound 0.316 µM) of 95.8%. The viability, T/C (second compound 0.0316 µM, first compound 1 µM) was 97.8%, the viability, T/C (second compound 0.0316 µM, first compound 3.16 µM) was 104% and the viability, T/C (second compound 0.0316 µM, first compound 10 µM) was 102%. It also gave a viability, T/C (second compound 0.1 µM, first compound 0.0316 µM) of 106%, a viability, T/C (second compound 0.1 µM, first compound 0.1 µM) of 115% and a viability, T/C (second compound 0.1 µM, first compound 0.316 µM) of 92.3%. The viability, T/C (second compound 0.1 µM, first compound 1 µM) was 107%, the viability, T/C (second compound 0.1 µM, first compound 3.16 µM) was 121% and the viability, T/C (second compound 0.1 µM, first compound 10 µM) was 91.5%. The viability, T/C (second compound 0.316 µM, first compound 0.0316 µM) was 104%, the viability, T/C (second compound 0.316 µM, first compound 0.1 µM) was 116% and the viability, T/C (second compound 0.316 µM, first compound 0.316 µM) was 96.8%. For the same compound, the viability, T/C (second compound 0.316 µM, first compound 1 µM) was 99.3%, the viability, T/C (second compound 0.316 µM, first compound 3.16 µM) was 97.2% and the viability, T/C (second compound 0.316 µM, first compound 10 µM) was 89.8%. It also gave a viability, T/C (second compound 1 µM, first compound 0.0316 µM) of 104%, a viability, T/C (second compound 1 µM, first compound 0.1 µM) of 105% and a viability, T/C (second compound 1 µM, first compound 0.316 µM) of 112%. The viability, T/C (second compound 1 µM, first compound 1 µM) was 105%, the viability, T/C (second compound 1 µM, first compound 3.16 µM) was 104% and the viability, T/C (second compound 1 µM, first compound 10 µM) was 92.5%. It also gave a viability, T/C (second compound 3.16 µM, first compound 0.0316 µM) of 112%, a viability, T/C (second compound 3.16 µM, first compound 0.1 µM) of 104% and a viability, T/C (second compound 3.16 µM, first compound 0.316 µM) of 91.8%. The viability, T/C (second compound 3.16 µM, first compound 1 µM) was 106%, the viability, T/C (second compound 3.16 µM, first compound 3.16 µM) was 103% and the viability, T/C (second compound 3.16 µM, first compound 10 µM) was 103%. The viability, T/C (second compound 10 µM, first compound 0.0316 µM) was 113%, the viability, T/C (second compound 10 µM, first compound 0.1 µM) was 105% and the viability, T/C (second compound 10 µM, first compound 0.316 µM) was 119%. It also gave a viability, T/C (second compound 10 µM, first compound 1 µM) of 110%, a viability, T/C (second compound 10 µM, first compound 3.16 µM) of 103% and a viability, T/C (second compound 10 µM, first compound 10 µM) of 105%.

With `O=C(Nc1ccc(O)c(NS(=O)(=O)c2ccc(F)cc2)c1)c1ccc(-c2ccccc2)cc1` the viability, T/C (compound 0.0316 µM) was 115% and 109% and 103%, the viability, T/C (compound 0.1 µM) was 97.8% and 105% and 91.7% and the viability, T/C (compound 0.316 µM) was 113% and 107% and 99.3%. The viability, T/C (compound 1 µM) was 105% and 99.7% and 101%, the viability, T/C (compound 3.16 µM) was 105% (2×) and 108% and the viability, T/C (compound 10 µM) was 104% and 99.2% and 98.4%. The IC50 (curve of compound) was greater than 10 µM.
